One experiment has as its target T1, ABCB4 WT (Homo sapiens, UniProt P21439).
T1 construct: expressed in transfected cells
The experiment is described as follows: ABCB4 WT assay: HiBit protein expression. It counts as cell-based. The note with it: HEK-293 cells stably expressing HiBit-tagged ABCB4 WT; 24 h treatment; top concentration 30 μM; read-out: ABCB4 WT EC50, Emax. The essentials: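 HEK-293 cells stably expressing HiBit-tagged human ABCB4 WT, treated 24 h at 37 °C with 11-dose 3-fold dilutions, top final 30 μM in 0.3% DMSO. HiBit lytic reagent luminescence read after 1 h at 25 °C; Emax and EC50 derived.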
A general note: The HiBiT peptide binds its large partner to form an active luciferase.

The next experiment concerns the target T2, ABCD2 WT (Homo sapiens, UniProt Q9UBJ2).
T2 construct: expressed in transfected cells
T2 sequence (Q9UBJ2 1-740): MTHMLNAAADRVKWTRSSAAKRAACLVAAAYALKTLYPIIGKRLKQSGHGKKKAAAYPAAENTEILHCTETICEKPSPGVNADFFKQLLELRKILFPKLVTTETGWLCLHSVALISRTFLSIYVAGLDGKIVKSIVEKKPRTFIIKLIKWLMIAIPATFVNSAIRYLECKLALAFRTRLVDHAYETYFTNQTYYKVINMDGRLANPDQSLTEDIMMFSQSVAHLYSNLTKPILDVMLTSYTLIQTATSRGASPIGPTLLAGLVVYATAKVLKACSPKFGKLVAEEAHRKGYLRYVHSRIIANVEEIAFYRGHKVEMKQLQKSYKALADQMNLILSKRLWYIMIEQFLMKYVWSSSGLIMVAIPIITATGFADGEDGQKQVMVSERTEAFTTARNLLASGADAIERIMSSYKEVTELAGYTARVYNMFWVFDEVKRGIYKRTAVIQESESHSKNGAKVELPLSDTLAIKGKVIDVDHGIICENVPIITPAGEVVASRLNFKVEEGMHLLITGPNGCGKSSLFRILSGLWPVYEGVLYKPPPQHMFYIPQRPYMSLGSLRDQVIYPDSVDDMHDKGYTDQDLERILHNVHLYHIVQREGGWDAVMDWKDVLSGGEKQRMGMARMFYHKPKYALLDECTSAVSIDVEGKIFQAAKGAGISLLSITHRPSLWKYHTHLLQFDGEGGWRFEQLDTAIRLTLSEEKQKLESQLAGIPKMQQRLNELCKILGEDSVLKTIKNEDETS
In words: D2 correction dose-response assay: ABCD2 WT HiBit protein expression. It counts as cell-based. Conditions: HEK-293/ABCD2 WT cells, 24 hours treatment, HiBit luminescence; class combines EC50 and Mean MaxAct (fold); read-out: ABCD2 WT EC50, Emax. A digest of the protocol: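 HEK-293 cells stably expressing HiBit-tagged human ABCD2 WT were treated with 11 doses (3-fold dilutions, top final 30 μM, 0.3% DMSO) for 24 h at 37 °C. Expression was measured by HiBit lytic luminescence after 1 h at 25 °C, giving EC50 and Emax.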

pEC50: −log10 of the molar value.

T1 sequence (P21439 whole entry): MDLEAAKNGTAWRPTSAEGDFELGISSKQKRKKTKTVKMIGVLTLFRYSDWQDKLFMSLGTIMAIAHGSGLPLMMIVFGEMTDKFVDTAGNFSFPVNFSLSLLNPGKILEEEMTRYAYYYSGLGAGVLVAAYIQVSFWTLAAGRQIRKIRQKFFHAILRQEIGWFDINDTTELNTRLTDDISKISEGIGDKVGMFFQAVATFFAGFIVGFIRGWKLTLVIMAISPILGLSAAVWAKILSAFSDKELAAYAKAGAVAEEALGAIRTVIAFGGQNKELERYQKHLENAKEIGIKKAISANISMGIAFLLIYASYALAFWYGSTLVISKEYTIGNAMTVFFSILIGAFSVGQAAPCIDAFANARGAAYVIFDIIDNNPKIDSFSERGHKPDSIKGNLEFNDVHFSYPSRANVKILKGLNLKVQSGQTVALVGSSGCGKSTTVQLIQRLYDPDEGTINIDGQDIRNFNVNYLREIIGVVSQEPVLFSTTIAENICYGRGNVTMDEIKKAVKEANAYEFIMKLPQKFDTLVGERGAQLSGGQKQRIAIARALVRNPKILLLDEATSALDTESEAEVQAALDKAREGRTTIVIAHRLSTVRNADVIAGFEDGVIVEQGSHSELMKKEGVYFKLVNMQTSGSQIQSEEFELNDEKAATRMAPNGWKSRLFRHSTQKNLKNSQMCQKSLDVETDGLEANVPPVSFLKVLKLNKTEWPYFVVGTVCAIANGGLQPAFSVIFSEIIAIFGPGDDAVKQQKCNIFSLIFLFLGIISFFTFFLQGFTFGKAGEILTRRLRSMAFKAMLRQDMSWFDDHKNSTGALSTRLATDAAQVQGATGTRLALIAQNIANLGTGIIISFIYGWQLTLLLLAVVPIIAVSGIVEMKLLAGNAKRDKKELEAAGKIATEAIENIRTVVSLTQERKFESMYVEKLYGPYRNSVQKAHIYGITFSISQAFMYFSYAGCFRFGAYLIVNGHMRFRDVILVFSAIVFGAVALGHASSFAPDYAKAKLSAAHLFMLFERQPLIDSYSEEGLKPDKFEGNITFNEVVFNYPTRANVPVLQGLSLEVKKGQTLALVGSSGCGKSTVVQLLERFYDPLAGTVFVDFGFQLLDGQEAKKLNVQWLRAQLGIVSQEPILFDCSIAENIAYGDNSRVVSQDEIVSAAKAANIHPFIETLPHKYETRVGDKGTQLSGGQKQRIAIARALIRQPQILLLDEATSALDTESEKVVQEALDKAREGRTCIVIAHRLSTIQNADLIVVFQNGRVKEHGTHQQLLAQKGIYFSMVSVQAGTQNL

Usually pEC50 stands for the EC50 on a negative log10 scale, so that one unit is a factor of ten. For the compound `Cc1cc(C2CC2)cc(C)c1Oc1nc(-c2cncc(C#N)c2)ccc1NS(C)(=O)=O` [Compound I-271], the pEC50 on ABCB4 WT is 5.00 to 6.00; on ABCD2 WT it was less than 4.60.
For `Cc1cc(C)c(Oc2nc(-c3cncc(Cl)c3)ccc2NS(=O)(=O)C2CC2)c(C)n1` [Compound I-238] the same measures were more than 4.60 and 5.00 to 6.00.
For `Cc1cc(C)c(Oc2nc(-c3cnc(C#N)c(Cl)c3)ccc2NS(C)(=O)=O)c(C)c1` [Compound I-36] the same measures were not above 4.60 and more than 6.00.
`Cc1cc(C)c(Oc2nc(N3CCN(C(=O)C(C)(C)C)CC3)ccc2NS(C)(=O)=O)c(C)c1` [Compound I-34]: the values for the pEC50 on ABCB4 WT and at ABCD2 WT were 5.00 to 6.00 and less than 4.60, respectively.
For `Cc1cc(C2CC2)nc(C)c1Oc1nc(-n2cnc(C#N)c2)ccc1NS(C)(=O)=O` [Compound I-254] the same measures were more than 4.60 and more than 6.00.
For `Cc1cc(C)c(Oc2nc(N3CCN(C(=O)N(C)C)CC3)ccc2NS(C)(=O)=O)c(C)c1` [Compound I-33] the same measures were 4.60 to 5.00 and 4.60 to 5.00.
For `Cc1cc(C)c(Oc2nc(-c3cc(C#N)cnc3C)ccc2NS(C)(=O)=O)c(C)n1` [Compound I-270] the same measures were more than 4.60 and 5.00 to 6.00.
Regarding `Cc1cc(C)c(Oc2nc(-c3cncc(Cl)c3)ccc2NS(=O)(=O)C(C)C)c(C)c1` [Compound I-29], the pEC50 on ABCB4 WT was not above 4.60; at ABCD2 WT it was less than 4.60.
The matching figures for `Cc1cc(C2CC2)nc(C2CC2)c1Oc1nc(-c2cncc(C#N)c2)ccc1S(=N)(=O)C1CC1` (stereo not shown) [Compound I-317]: more than 6.00 and 5.00 to 6.00.
The matching figures for `Cc1cc(C)c(Oc2nc(-c3cncc(Cl)c3)ncc2NS(C)(=O)=O)c(C)n1` [Compound I-246]: more than 4.60 and more than 6.00.
With `Cc1cc(C(F)F)nc(C2CC2)c1Oc1nc(-c2cncc(C#N)c2)ccc1S(=O)(=O)NC1COC1` [Compound I-321], the pEC50 at ABCB4 WT and at ABCD2 WT was 5.00 to 6.00 in each case.
With `Cc1cc(C2CC2)nc(C)c1Oc1nc(-c2cncc(C#N)c2)ccc1NS(=O)(=O)C1CCC1` [Compound I-252], the results for the negative-log EC50 (pEC50) at ABCB4 WT and at ABCD2 WT were not above 4.60 and 5.00 to 6.00, respectively.
For `Cc1cc(C)c(Oc2nc(-c3cncc(C#N)c3)cnc2NS(C)(=O)=O)c(C)c1` [Compound I-275] the same measures were not above 4.60 and more than 6.00.
Take `Cc1cc(C)c(Oc2nc(-c3cncc(C#N)c3)ccc2NS(=O)(=O)C2CC2)c(C)n1` [Compound I-266]: the pEC50 on ABCB4 WT is more than 6.00; at ABCD2 WT, less than 4.60.
For the compound `Cc1cc(C)c(Oc2nc(N3C4CC3CN(C(=O)C3CC3)C4)ccc2NS(C)(=O)=O)c(C)c1` [Compound I-35], the pEC50 on ABCB4 WT is not above 4.60; at ABCD2 WT, less than 4.60.
Turning to `Cc1cc(C)c(Oc2nc(N3CCN(C(=O)C4CCC4)CC3)ccc2NS(C)(=O)=O)c(C)c1` [Compound I-24], the results for the negative-log EC50 (pEC50) at ABCB4 WT and on ABCD2 WT were more than 6.00 and 5.00 to 6.00, respectively.
The matching figures for `CNC(=O)N1CCN(c2ccc(NS(C)(=O)=O)c(Oc3c(C)cc(C)cc3C)n2)CC1` [Compound I-27]: 4.60 to 5.00 and less than 4.60.
The matching figures for `Cc1cc(C)c(Oc2nc(N3CCC(C#N)C3)ccc2NS(C)(=O)=O)c(C)c1` (single isomer, unassigned) [Compound I-261]: 5.00 to 6.00 and 5.00 to 6.00.
For `Cc1cc(C)c(Oc2nc(-c3cc(C#N)c[nH]c3=O)ccc2NS(C)(=O)=O)c(C)n1` [Compound I-326] the same measures were more than 4.60 and less than 4.60.
For the compound `Cc1cc(C)c(Oc2nc(-c3cncc(C#N)c3)ccc2S(=N)(=O)C2CC2)c(C)c1` (stereo not shown) [Compound I-245], the pEC50 on ABCB4 WT is 5.00 to 6.00; at ABCD2 WT, more than 6.00.
For `Cc1cc(C)c(Oc2nc(-c3cncc(C#N)c3)c(O)cc2NS(C)(=O)=O)c(C)n1` [Compound I-327] the same measures were more than 6.00 and more than 6.00.
The matching figures for `Cc1cnc(Oc2nc(-c3cncc(C#N)c3)ccc2NS(C)(=O)=O)c(C)c1` [Compound I-250]: not above 4.60 and less than 4.60.
As for `Cc1cc(C)c(Oc2nc(N3CCC4(CN(C(=O)C5CC5)C4)C3)ccc2NS(C)(=O)=O)c(C)c1` [Compound I-25], the pEC50 at ABCB4 WT and at ABCD2 WT was 5.00 to 6.00 throughout.
As for `Cc1cc(C)c(Oc2nc(-c3cncc(C#N)c3)ccc2S(N)(=O)=O)c(C)c1` [Compound I-280], the pEC50 on ABCB4 WT and on ABCD2 WT was more than 6.00 each time.
As to `Cc1cc(C)c(Oc2nc(-c3cccc(C#N)n3)ccc2NS(C)(=O)=O)c(C)n1` [Compound I-241], the pEC50 on ABCB4 WT and at ABCD2 WT was 4.60 to 5.00 in each case.
On to `Cc1cc(C)c(Oc2nc(-c3cncc(C#N)c3)ccc2S(C)(=N)=O)c(C)c1` (stereo not shown) [Compound I-279], for which the negative logarithm of the EC50 (pEC50) on ABCB4 WT is more than 6.00; on ABCD2 WT, 4.60 to 5.00.
As for `Cc1cc(C)c(Oc2nc(-c3cncc(Cl)c3)cnc2NS(C)(=O)=O)c(C)n1` [Compound I-260], the results for the negative-log EC50 (pEC50) on ABCB4 WT and at ABCD2 WT were not above 4.60 and 5.00 to 6.00, respectively.
In the case of `Cc1cc(C)c(Oc2nc(N3CC4CC3CN4C(=O)C3CC3)ccc2NS(C)(=O)=O)c(C)c1` (single isomer, unassigned) [Compound I-18], the pEC50 at ABCB4 WT is not above 4.60; at ABCD2 WT, less than 4.60.
The matching figures for `CNS(=O)(=O)c1ccc(-c2cncc(C#N)c2)nc1Oc1c(C)cc(C)nc1C` [Compound I-265]: more than 6.00 and 5.00 to 6.00.
The matching figures for `Cc1cc(C)c(Oc2nc(N3CCN(C(=O)OC(C)C)CC3)ccc2NS(C)(=O)=O)c(C)c1` [Compound I-32]: not above 4.60 and 5.00 to 6.00.
The matching figures for `Cc1cc(C2CC2)nc(C)c1Oc1nc(-c2cncc(C#N)c2)ccc1NS(=O)(=O)C1CC1` [Compound I-264]: more than 6.00 and less than 4.60.
As for `Cc1cc(C2CC2)nc(C)c1Oc1nc(-n2ccc(C#N)n2)ccc1NS(C)(=O)=O` [Compound I-255], the pEC50 at ABCB4 WT was not above 4.60; at ABCD2 WT, 5.00 to 6.00.
The matching figures for `CCCS(=O)(=O)Nc1ccc(-c2cncc(C#N)c2)nc1Oc1c(C)cc(C)nc1C` [Compound I-242]: 5.00 to 6.00 and less than 4.60.
In the case of `Cc1cc(C)c(Oc2nc(-c3cncc(C#N)c3)ccc2NS(=O)(=O)C2COC2)c(C)c1` [Compound I-267], the negative-log EC50 (pEC50) at ABCB4 WT and on ABCD2 WT was more than 6.00 each time.
For the compound `Cc1cc(C)c(Oc2nc(N3CC4(CN(C(=O)C5CC5)C4)C3)ccc2NS(C)(=O)=O)c(C)c1` [Compound I-38], the values for the pEC50 on ABCB4 WT and on ABCD2 WT were not above 4.60 and less than 4.60, respectively.

The record behind these values is patent US20250228835A1, “PYRIDINYLOXYPYRIDINES AND RELATED COMPOUNDS AND THEIR USE IN TREATING MEDICAL CONDITIONS” (Rectify Pharmaceuticals, Inc., priority 2024, published 2025).
